Laboratory results as given in EPA's ToxRefDB 2.

Columns and labels:
[1] = tested on: rat; settings: Subchronic oral toxicity in rodents, fischer, Gavage/Intubation, dose end: 13 week, group: systemic, systemic / in life observation / clinical signs / aggressive behavior + systemic / in life observation / clinical signs / hypersensitivity…
[2] = tested on: mouse; settings: Subchronic oral toxicity in rodents, b6c3f1, Gavage/Intubation, dose end: 22 week, group: systemic, systemic / in life observation / clinical signs / aggressive behavior + systemic / in life observation / clinical signs / convulsions + …
[3] = tested on: mouse; settings: Subchronic oral toxicity in rodents, b6c3f1, Gavage/Intubation, dose end: 13 week
[4] = tested on: rat; settings: Subchronic oral toxicity in rodents, fischer, Gavage/Intubation, dose end: 13 week
[5] = tested on: rat; settings: Carcinogenicity, fischer, Oral, Gavage/Intubation, dose end: 105 week, group: systemic
[6] = tested on: mouse; settings: Combined chronic toxicity/carcinogenicity, b6c3f1, Oral, Feed, dose end: 106 week, group: systemic
[7] = tested on: rat; settings: Combined chronic toxicity/carcinogenicity; fischer; Oral; Feed; dose end: 105 week; group: systemic; systemic / in life observation / body weight / body weight + systemic / pathology microscopic / kidney / nephropathy + systemic / pathology …
[8] = group: maternal, reproductive / reproductive performance / estrous cycle / abnormal
[9] = group: systemic, systemic / in life observation / body weight / body weight + systemic / in life observation / body weight / body weight gain
[10] = group: systemic, systemic / in life observation / clinical signs / aggressive behavior + systemic / in life observation / clinical signs / convulsions + …
[11] = group: systemic, systemic / in life observation / clinical signs / aggressive behavior + systemic / in life observation / clinical signs / reactivity to …
[12] = systemic / in life observation / clinical signs / [other] + systemic / in life observation / clinical signs / convulsions
[13] = systemic / in life observation / clinical signs / [other] + systemic / in life observation / clinical signs / convulsions + systemic / …
[14] = systemic / in life observation / body weight / body weight
[15] = systemic / in life observation / body weight / body weight + systemic / pathology microscopic / blood / lymphoma nos + systemic / pathology …

Compound CCCCCc1cc(O)c2c(c1)OC(C)(C)[C@@H]1CCC(C)=C[C@@H]21 [1-trans-delta-9-Tetrahydrocannabinol] has an LEL [1] of 5 mg/kg/day, an LOAEL [1] greater than 500 mg/kg/day and an NEL [1] of less than 5 mg/kg/day. It also gave an NOAEL [1] of no less than 500 mg/kg/day, an LEL [2] of 5 mg/kg/day and an LOAEL [2] greater than 500 mg/kg/day. It also gave an NEL [2] of less than 5 mg/kg/day, an NOAEL [2] of no less than 500 mg/kg/day and an LEL [3, 8] of 5 mg/kg/day. For the same compound, the LOAEL [3, 8] was greater than 500 mg/kg/day, the NEL [3, 8] was less than 5 mg/kg/day and the NOAEL [3, 8] was no less than 500 mg/kg/day. For the same compound, the LOAEL [3, 9] was 500 mg/kg/day, the LEL [3, 10] was 5 mg/kg/day and the NEL [3, 10] was less than 5 mg/kg/day. The NOAEL [3, 10] was 150 mg/kg/day, the LEL [4, 8] was 15 mg/kg/day and the LOAEL [4, 8] was greater than 500 mg/kg/day. It also gave an NEL [4, 8] of 5 mg/kg/day, an NOAEL [4, 8] of no less than 500 mg/kg/day and an LOAEL [4, 9] of 15 mg/kg/day. For the same compound, the LEL [4, 11] was 5 mg/kg/day, the NEL [4, 11] was less than 5 mg/kg/day and the NOAEL [4, 11] was 5 mg/kg/day. It also gave an LOAEL [5, 12] of 12.5 mg/kg/day, an NOAEL [5, 12] of less than 12.5 mg/kg/day and an LEL [5, 13] of 12.5 mg/kg/day. It also gave an NEL [5, 13] of less than 12.5 mg/kg/day.
For c1ccc2n[nH]nc2c1 [1,2,3-Benzotriazole], the LOAEL [6, 14] was 1760 mg/kg/day, the NOAEL [6, 14] was less than 1760 mg/kg/day and the LEL [6, 15] was 1760 mg/kg/day. For the same compound, the NEL [6, 15] was less than 1760 mg/kg/day, the LEL [7] was 335 mg/kg/day and the LOAEL [7] was 335 mg/kg/day. It also gave an NEL [7] of less than 335 mg/kg/day and an NOAEL [7] of less than 335 mg/kg/day.
